# Patent US6825177B2, “Aryl phosphate derivatives of d4T with potent anti-viral activity” (Parker Hughes Institute, priority 2000, dated 2004)
# Read-outs that look alike come from different tables or passages of the source.
# Columns and labels:
# [1] = for effect of esterase inhibitor on decomposition of HI-113 in plasma: plasma pre-incubated with inhibitor at 37° C. for 30 minutes, 250 μM HI-113
# Procedure: Plasma samples were pre-incubated with the esterase inhibitors paraoxon (final concentration of 0.1 mM), physostigmine (final concentration of 0.1 mM), and EDTA (final concentration of 1M) at 37° C. for 30 minutes. […] The data in Table 1 was the mean percent hydrolysis from two experiments.
# [2] = Stability of HI-113 and Ala-d4T-MP in plasma; format: in vitro ADME; details: for stability in plasma: 250 μM HI-113, 100 μM Ala-d4T-MP
# Excerpt: (§1) The HPLC system used for these studies was a Hewlett Packard (Palo Alto, Calif.) series 1100 instrument equipped with a quaternary pump, an autosampler, an automatic electronic degasser, an automatic thermostatic column compartment, a diode array detector and a computer with Chemstation software for data analysis (Chen et al., J. Chromatogr. B., 724, 157 (1999); Chen et al., J. Chromatogr. B., 727, 205 (1999); and Chen et al., J. Liq. Chromatogr., 22, 1771 (1999)). The analytical column used was a Zobax SB-Phenyl (5 μm, Hewlett Packard, Inc.) column attached to a guard column (Hewlett Packard, Inc.). The column was equilibrated prior to data collection. […] The detection wavelength was 268 nm, the peakwidth was less than 0.03 minutes, the response time was 0.5 seconds, and the slit was 4 nm.
# (§2) Plasma samples (200 μL) were mixed 1:4 with acetone (800 μL) and vortexed for at least 30 seconds. Following centrifugation, the supernatant was transferred into a clean tube and was dried under nitrogen. A 50 μL solution of 50% methanol in 200 mM HCl was used to reconstitute the extraction residue, and 40 μL was injected into the HPLC.
# (§3) The whole blood samples were placed in a 37° C. water bath, while plasma samples were stored at −20° C. At a predetermined time, an aliquot (100 μl) of spiked whole blood or plasma was extracted by adding 400 μl of acetone to induce precipitation of proteins, as described above.
# [3] = system: zidovudine (ZVD/AZT)-resistant HIV-1 strains; details: PBMNC; cited from earlier work
# [4] = Stability in simulated intestinal fluid; format: in vitro ADME; details: 100 μM, 37° C.
# Procedure: (§4) The spiked fluids were then placed in a 37° C. water bath. At a predetermined time, 100 μl aliquots of the spiked gastric or intestinal fluid were extracted by adding 400 μl of acetone as discussed above.
# [5] = Pharmacokinetics of HI-113 and its metabolites after intravenous HI-113
# Procedure: (§5) Female Balb/c mice (6-8 weeks old) from Taconic (Germantown, N.Y.) were housed in a controlled environment (12-hours of light/12-hours of dark, 22±1° C., 60±10% relative humidity), which is fully accredited by the USDA. All rodents were housed in microisolator cages (Lab Products, Inc., N.J.) containing autoclaved bedding. The mice were allowed free access to autoclaved pellet food and tap water throughout the study.
# (§6) All collected blood samples were heparinized and centrifuged at 7000×g for 5 minutes to separate the plasma fraction from the whole blood. The plasma samples were then processed immediately using the extraction procedure described above.
# An appropriate model was chosen on the basis of the lowest sum of weighted squared residuals, the lowest Schwartz Criterion (SC), the lowest Akaike's Information Criterion (AIC) value, the lowest standard errors of the fitted parameters, and the dispersion of the residuals. The elimination half-life was estimated by linear regression analysis of the terminal phase of the plasma concentration-time profile. […] The systemic clearance (CL) was determined by dividing the dose by the AUC.
# [6] = Pharmacokinetics after oral administration of HI-113; format: in vivo, Balb/c mice
# Procedure: Female Balb/c mice (6-8 weeks old) from Taconic (Germantown, N.Y.) were housed in a controlled environment (12-hours of light/12-hours of dark, 22±1° C., 60±10% relative humidity), which is fully accredited by the USDA. All rodents were housed in microisolator cages (Lab Products, Inc., N.J.) containing autoclaved bedding. The mice were allowed free access to autoclaved pellet food and tap water throughout the study. All animal care procedures conformed to the Guide for the Care and Use of Laboratory Animals (National Research Council, National Academy Press, Washington D.C. 1996).
# Sampling time points were 0, 2, 5, 10, 15, 30, 45, 60, 120, 240 and 360 minutes after the gavage. […]
# Pharmacokinetic modeling and parameter calculations were carried out using the WinNonlin Professional Version 3.0 (Pharsight, Inc., Mountain, Calif.) pharmacokinetics software (Chen et al., Pharm. Res., 16, 1003 (1999); Chen et al., Pharm. Res., 16, 117 (1999); Chen et al., J. Clin. Pharmacol., 39, 1248 (1999); Uckun et al., Clin. Cancer Res., 5, 2954 (1999); and Uckun et al., J. Pharmacol. Exp. Ther., 291, 1301 (1999)). […] The area under the concentration-time curve (AUC) was calculated according to the linear trapezoidal rule between the first sampling time (0 hours) and the last sampling time plus C/k, where C is the concentration of the last sampling and k is the elimination rate constant. […]
# [7] = system: HIV replication in thymidine kinase-deficient T-cells; details: compared with d4T; cited from earlier work
# [8] = Stability of HI-113 and Ala-d4T-MP in whole blood; format: in vitro ADME; details: 37° C.; for stability in whole blood: 250 μM HI-113, 100 μM Ala-d4T-MP
# Excerpt: as §1, §2, §3
# [9] = Stability of HI-113 in murine liver homogenates; format: in vitro ADME, Balb/c mice; details: 100 μM
# Procedure: Fresh mouse liver was obtained from Balb/c mice and homogenated in 1×PBS (1:1, W/V) using a Polytron (PT-MR2000) homogenizer (Kinematical AG, Littau, Switzerland). […] At a predetermined time, an aliquot (100 μl) of spiked liver homogenate was extracted by adding 400 μl of acetone to induce precipitation of proteins, as described above.
# [10] = system: HIV-2; details: PBMNC; cited from earlier work
# [11] = Stability in simulated gastric fluid; format: in vitro ADME; details: 100 μM, 37° C.
# Procedure: as §4
# [12] = system: HIV replication in human peripheral blood mononuclear cells (PBMNC); details: compared with d4T; cited from earlier work
# [13] = Pharmacokinetics of Ala-d4T-MP and its metabolite after intravenous Ala-d4T-MP; format: in vivo, Balb/c mice
# Procedure: as §5
# Blood samples (˜500 μL) were obtained from the ocular venous plexus by retro-orbital venipuncture at 0, 2, 5, 10, 15, 30, 45, 60, 120, 240 and 360 minutes after intravenous injection. […]
# Pharmacokinetic modeling and parameter calculations were carried out using the WinNonlin Professional Version 3.0 (Pharsight, Inc., Mountain, Calif.) pharmacokinetics software (Chen et al., Pharm. Res., 16, 1003 (1999); Chen et al., Pharm. Res., 16, 117 (1999); Chen et al., J. Clin. Pharmacol., 39, 1248 (1999); Uckun et al., Clin. Cancer Res., 5, 2954 (1999); and Uckun et al., J. Pharmacol. Exp. Ther., 291, 1301 (1999)). […] The area under the concentration-time curve (AUC) was calculated according to the linear trapezoidal rule between the first sampling time (0 hours) and the last sampling time plus C/k, where C is the concentration of the last sampling and k is the elimination rate constant. The systemic clearance (CL) was determined by dividing the dose by the AUC. […]
# [14] = Pharmacokinetics of d4T after intravenous d4T; format: in vivo, Balb/c mice; details: i.v. d4T 40 mg/kg
# Procedure: as §5
# Blood samples (˜500 μL) were obtained from the ocular venous plexus by retro-orbital venipuncture at 0, 2, 5, 10, 15, 30, 45, 60, 120, 240 and 360 minutes after intravenous injection.
# as §6
# Pharmacokinetic modeling and parameter calculations were carried out using the WinNonlin Professional Version 3.0 (Pharsight, Inc., Mountain, Calif.) pharmacokinetics software (Chen et al., Pharm. Res., 16, 1003 (1999); Chen et al., Pharm. Res., 16, 117 (1999); Chen et al., J. Clin. Pharmacol., 39, 1248 (1999); Uckun et al., Clin. Cancer Res., 5, 2954 (1999); and Uckun et al., J. Pharmacol. Exp. Ther., 291, 1301 (1999)). An appropriate model was chosen on the basis of the lowest sum of weighted squared residuals, the lowest Schwartz Criterion (SC), the lowest Akaike's Information Criterion (AIC) value, the lowest standard errors of the fitted parameters, and the dispersion of the residuals. The elimination half-life was estimated by linear regression analysis of the terminal phase of the plasma concentration-time profile. The area under the concentration-time curve (AUC) was calculated according to the linear trapezoidal rule between the first sampling time (0 hours) and the last sampling time plus C/k, where C is the concentration of the last sampling and k is the elimination rate constant. The systemic clearance (CL) was determined by dividing the dose by the AUC. The metabolic clearance of the parent drug, the formation clearance of the metabolite, the clearance elimination of the metabolite, and the distribution clearance of the metabolite were estimated by simultaneous fitting of the concentration of parent drug and metabolites as a function of time curve to pharmacokinetic models (see FIGS. 7A & 8A) specified as a system of differential equations (Gabrielsson & Weiner, Phamacokinetic/Phamacodynamic Data Analysis: Concepts and Applications, Swedish Pharmaceutical Press (1997)).
# [15] = i.v. HI-113 100 mg/kg, plasma, estimated from composite curve of pooled data
# [16] = i.v. HI-113 100 mg/kg, mean ± S.E.M
# [17] = plasma, estimated from composite curve of pooled data
smiles,measurement,setting,value
"O=C(O)CN(CCN(CC(=O)O)CC(=O)O)CC(=O)O [EDTA, reference compound]",effect of esterase inhibitor on decomposition of HI-113 in plasma,[1],not affected
"COC(=O)C(C)NP(=O)(OC[C@@H]1C=C[C@H](n2cc(C)c(=O)[nH]c2=O)O1)Oc1ccc(Br)cc1 (stereo partly shown) [HI-113, d4T-5′-[p-bromophenylmethoxyalaninyl phosphate]]",time until decomposition was complete in plasma,[2]; 250 μM,≤ 30 min
same,stability in plasma,[2],very unstable
same,HI-113 decomposed following incubation with plasma,"[2]; after 5 minutes, 250 μM",over 95%
same,concentration inhibiting replication of zidovudine (ZVD/AZT)-resistant HIV-1 strains,[3],nanomolar concentrations
same,stability in intestinal fluid,[4],not stable
same,HI-113 decomposed in intestinal fluid,[4]; within 2 hours,approximately 94%
same,VSS,[5]; [15],0.8199 L/kg
same,CL,[5]; [16],(174.5 ± 13.2) ml/min/kg
same,VSS,[5]; [16],(920 ± 127.4) ml/kg
same,percent hydrolysis of HI-113 in plasma,"[1]; EDTA (1 mM), 10 min",100%
same,percent hydrolysis of HI-113 in plasma,"[1]; EDTA (1 mM), 15 min",100%
same,percent hydrolysis of HI-113 in plasma,"[1]; EDTA (1 mM), 30 min",100%
same,percent hydrolysis of HI-113 in plasma,"[1]; EDTA (1 mM), 60 min",100%
same,percent hydrolysis of HI-113 in plasma,"[1]; EDTA (1 mM), 120 min",100%
same,percent hydrolysis of HI-113 in plasma,"[1]; EDTA (1 mM), arylesterase, 5 min",99%
same,percent hydrolysis of HI-113 in plasma,"[1]; Paraoxon (0.1 mM), 10 min",2%
same,percent hydrolysis of HI-113 in plasma,"[1]; Paraoxon (0.1 mM), 15 min",2%
same,percent hydrolysis of HI-113 in plasma,"[1]; Paraoxon (0.1 mM), 30 min",2%
same,percent hydrolysis of HI-113 in plasma,"[1]; Paraoxon (0.1 mM), 60 min",3%
same,percent hydrolysis of HI-113 in plasma,"[1]; Paraoxon (0.1 mM), 120 min",24%
same,percent hydrolysis of HI-113 in plasma,"[1]; Paraoxon (0.1 mM), cholinesterase & carboxylesterase, 5 min",0%
same,percent hydrolysis of HI-113 in plasma,"[1]; Physostigmine (0.1 mM), 10 min",65%
same,percent hydrolysis of HI-113 in plasma,"[1]; Physostigmine (0.1 mM), 15 min",76%
same,percent hydrolysis of HI-113 in plasma,"[1]; Physostigmine (0.1 mM), 30 min",89%
same,percent hydrolysis of HI-113 in plasma,"[1]; Physostigmine (0.1 mM), 60 min",100%
same,percent hydrolysis of HI-113 in plasma,"[1]; Physostigmine (0.1 mM), 120 min",100%
same,percent hydrolysis of HI-113 in plasma,"[1]; Physostigmine (0.1 mM), cholinesterase, 5 min",43%
same,percent hydrolysis of HI-113 in plasma,"[1]; no inhibitor, 5 min, 250 μM HI-113, mean of two experiments",95%
same,percent hydrolysis of HI-113 in plasma,"[1]; no inhibitor, 10 min",98%
same,percent hydrolysis of HI-113 in plasma,"[1]; no inhibitor, 15 min",99%
same,percent hydrolysis of HI-113 in plasma,"[1]; no inhibitor, 30 min",100%
same,percent hydrolysis of HI-113 in plasma,"[1]; no inhibitor, 60 min",100%
same,percent hydrolysis of HI-113 in plasma,"[1]; no inhibitor, 120 min",100%
same,plasma concentration of the parent compound (below the detection limit),[6]; oral HI-113 100 mg/kg,< 500 nM
same,potency in inhibiting HIV replication,[7],substantially more potent than d4T
same,stability in whole blood,[8],very unstable
same,time until decomposition was complete in whole blood,[8]; 250 μM,≤ 30 min
same,HI-113 decomposed in whole blood,"[8]; 5 minutes, 250 μM",68%
same,HI-113 decomposed in whole blood,"[8]; 10 minutes, 250 μM",87%
same,HI-113 decomposed in whole blood,"[8]; 15 minutes, 250 μM",92%
same,time within which HI-113 decomposed in liver homogenate,[9],≤ 30 min
same,concentration inhibiting replication of HIV-2,[10],nanomolar concentrations
same,stability in gastric fluid,[11],relatively stable in gastric fluid for 8 hours
same,potency in inhibiting HIV replication,[12],substantially more potent than d4T
"Cc1cn([C@H]2C=C[C@@H](COP(=O)(O)NC(C)C(=O)O)O2)c(=O)[nH]c1=O (stereo partly shown) [Ala-d4T-MP, alaninyl-d4T-monophosphate]",stability in plasma,[2],stable in both whole blood and plasma for 1 day
same,stability in intestinal fluid,[4],stable
same,CLm1 as share of the total systemic clearance,[13]; i.v. Ala-d4T-MP,99%
same,fraction of HI-113 converted to the metabolite,[5]; after intravenous HI-113,23%
same,estimated bioavailability of the metabolite,[6]; after oral administration of HI-113,approximately 12%
same,stability in whole blood,[8],stable in both whole blood and plasma for 1 day
"CCOP(=O)(OCC)Oc1ccc([N+](=O)[O-])cc1 [paraoxon, reference compound]",effect of esterase inhibitor on decomposition of HI-113 in plasma,[1],significantly inhibited
"Cc1cn([C@H]2C=C[C@@H](CO)O2)c(=O)[nH]c1=O [d4T, 2′,3′-didehydro-2′,3′-dideoxythymidine]",AUC,[14]; [17],12227.1 µM·min
same,CL,[14]; [17],15.0 mL/min/kg
same,VSS,[14]; [17],0.6578 L/kg
same,t1/2,[14]; [17],0.505 h
same,CL,[14]; mean ± S.E.M,(15.2 ± 0.7) ml/min/kg
same,VSS,[14]; mean ± S.E.M,(581.8 ± 62.8) ml/kg
same,t1/2,[14]; mean ± S.E.M,(26.6 ± 1.2) min
same,formation of d4T from intravenously administered Ala-d4T-MP (fraction converted),"[13]; female, Balb/c, mouse, in vivo, iv",15%
same,t1/2,[5]; [15],1.913 h
